pIC50: −log10 of the molar value.
Assays:
[1] = system: plasmid DNA; test: Gel shift assay using plasmid DNA; type: binding; conditions: 1:1 molar ratio cationic lipid and DOPE, agarose gel
Description: Gel Shift Assays Using Plasmid DNA. Nanoparticles consisting of a 1:1 molar ratio of cationic lipid/DOPE were rehydrated in a 20 mM HEPES solution at pH 4. […] The gels were visualized and photographed using a Bio-Rad ChemiDoc XR system using the manufacturer's software.

[2] = system: canonical NFKB; test: THP-1-Blue NFKB reporter (SEAP) assay; type: cell-based, human; conditions: THP-1-Blue cells stimulated with TNFα
[3] = system: murine macrophages; conditions: incubation of murine macrophages; cited from earlier work
[4] = system: cIAP; conditions: cited from earlier work

## CCCCCCCC/C=C\CCCCCCCC(=O)OC[C@@H](COP(=O)(O)OCCN)OC(=O)CCCCCCC/C=C\CCCCCCCC (stereo in doubt) [DOPE, 1,2-dioleoyl-sn-glycero-3-phosphoethanolamine, reference compound]
[1]
  N:P ratio at which nucleic acid is complexed / migration inhibited: unable to prevent migration
[2]
  canonical NFKB inhibition: exhibited no activity

## CC[C@H]1OC(=O)[C@H](C)[C@@H](O[C@H]2C[C@@](C)(OC)[C@@H](O)[C@H](C)O2)[C@H](C)[C@@H](O[C@@H]2O[C@H](C)C[C@H](N(C)C)[C@H]2O)[C@](C)(O)C[C@@H](C)CN(C)[C@H](C)[C@@H](O)[C@]1(C)O [azithromycin]
[3]
  IKKβ expression: increases the overall expression of IKβ kinase (IKKB)

## CC[C@H](NC(=O)[C@H](C)NC)C(=O)N1C[C@@H](O)C[C@H]1Cc1c(-c2[nH]c3cc(F)ccc3c2C[C@@H]2C[C@H](O)CN2C(=O)[C@H](CC)NC(=O)[C@H](C)NC)[nH]c2cc(F)ccc12 [birinapant]
[4]
  pIC50: 7.30
